Laboratory results: patent US20120142771A1, “BIPHENYLACETAMIDE DERIVATIVE” (Dainippon Sumitomo Pharma Co., Ltd., priority 2008, published 2012)
Where two headings read alike, the source gives them in different places.

How the values were obtained:
Format in all cases: in vivo, mice
[1] = test system: 6 Hz psychomotor seizure model; assay: 6 Hz psychomotor seizure model; details: for ED50: Mus musculus; for 6 Hz (Positive number/tested number): dose 100 mg/kg, 30 minutes or 1 hour after administration
Method: Test 4: Test of 6 Hz Psychomotor Seizure Model
Similar to Tests 1 and 2, Test 4 evaluates the anticonvulsant action of medicaments. However, unlike Tests 1 and 2, the animal model used herein represents clinical phenotypes of seizures resistant to existing antiepileptic drugs. […] After 30 minutes or an hour of administration, their corneas were electrically stimulated (6 Hz, 32 mA, 3 seconds) to induce symptoms of myoclonus in their forelimbs, Straub tail, and immobility. […] To the control mice, 0.5% tragacanth solution, 0.5% methylcellulose solution, or olive oil was administered.

[2] = test system: subcutaneously pentetrazol-injected model (scPTZ); assay: Subcutaneously pentetrazol-injected model (scPTZ) test; details: pentetrazol 85 mg/kg s.c. after 1 hour; for responders at 50 mg/kg / responders at 100 mg/kg: Mus musculus, po, 1 h, read-out: scPTZ (positive number/tested number) (converted); for responders at 50 mg/kg / responders at 100 mg/kg / scPTZ (positive number/tested number): Slc: ddY male mice, 3 per group, observed 30 minutes for clonic convulsion; for anticonvulsant action in subcutaneously pentetrazol-injected model (scPTZ) test: mice, oral 50 or 100 mg/kg
How it was run: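 Male Slc:ddY mice (20-30 g, 3 per group) dosed orally at 50 or 100 mg/kg; pentetrazol 85 mg/kg given subcutaneously 1 h later. Controls received 0.5% tragacanth or 0.5% methylcellulose vehicle.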

[3] = test system: maximum electroshock seizure (MES) model; assay: Maximum electroshock seizure (MES) model test; details: for responders at 50 mg/kg / responders at 100 mg/kg: Mus musculus, po, 1 h; for responders at 50 mg/kg / responders at 100 mg/kg / MES (positive number/tested number): inhibition of hind limb extension; for anticonvulsant action in maximum electroshock seizure (MES) model test: mice, oral 50 or 100 mg/kg, 1 hour after administration
How it was run: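 Male Slc: ddY mice (3 per group, 20-30 g) received compound orally at 50 or 100 mg/kg; controls got 0.5% tragacanth or 0.5% methylcellulose. One hour post-dose, corneal stimulation (60 Hz, 25 mA, 0.2 s) induced tonic hind-limb extensor convulsion.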

[4] = 6 Hz psychomotor seizure model, mice, oral, read-out: ED50
[5] = 50 mg/kg oral, Slc: ddY male mice, 3 per group, electrical stimulation 1 hour after administration, read-out: MES (positive number/tested number) (converted)
[6] = 100 mg/kg oral, Slc: ddY male mice, 3 per group, electrical stimulation 1 hour after administration, read-out: MES (positive number/tested number) (converted)
[7] = 50 mg/kg oral, Slc: ddY male mice, 3 per group, electrical stimulation 1 hour after administration
[8] = 100 mg/kg oral, Slc: ddY male mice, 3 per group, electrical stimulation 1 hour after administration

Row | SMILES | ED50 [1, 4] [mg/kg] | efficacy in 6 Hz psychomotor seizure model ([1]; mice, oral administration at a dose of 100 mg/kg) | 6 Hz (Positive number/tested number) ([1]; mice, oral) | responders at 50 mg/kg ([2]; 50 mg/kg oral) [%] | responders at 100 mg/kg ([2]; 100 mg/kg oral) [%] | anticonvulsant action in subcutaneously pentetrazol-injected model (scPTZ) test [2] | responders at 50 mg/kg [3, 5] [%] | responders at 100 mg/kg [3, 6] [%] | anticonvulsant action in maximum electroshock seizure (MES) model test [3] | ED50 ([1]; po) [mg/kg] | scPTZ (positive number/tested number) ([2]; 50 mg/kg oral) | scPTZ (positive number/tested number) ([2]; 100 mg/kg oral) | MES (positive number/tested number) [3, 7] | responders at 100 mg/kg ([3]; read-out: MES (positive number/tested number), 100 mg/kg oral, Slc: ddY male mice, 3 per group, electrical stimulation 1 hour after administration) [%] | MES (positive number/tested number) [3, 8]
1 | NC(=O)[C@H](O)c1ccccc1-c1ccccc1 (single isomer, unassigned) [Example 207, 2-(Biphenyl-2-yl)-2R-hydroxyacetamide] | 86.6 | potent efficacy | 7/10/100 | 66.7 | 66.7 | anticonvulsant action was observed | 66.7 | 100 | anticonvulsant action was observed | – | – | – | – | – | –
2 | NC(=O)C(F)c1ccccc1-c1ccccc1 (single isomer, unassigned) [Example 209, 2-(Biphenyl-2-yl)-2-fluoroacetamide] | – | – | 6/10/100 | – | – | anticonvulsant action was observed | – | – | anticonvulsant action was observed | 109 | 2/3 | 2/3 | 3/3 | 100 | –
3 | NC(=O)C(F)c1ccccc1-c1ccccc1 (single isomer, unassigned) [Example 210, 2-(Biphenyl-2-yl)-2-fluoroacetamide] | – | – | 4/5/100 | – | – | anticonvulsant action was observed | – | – | anticonvulsant action was observed | – | 3/3 | 3/3 | 2/3 | – | 3/3
4 | NC(=O)C(O)c1ccccc1-c1cccc(F)c1 (single isomer, unassigned) [Example 211, 2-(3′-Fluorobiphenyl-2-yl)-2-hydroxyacetamide] | 100 | – | 5/10/100 | 66.7 | 66.7 | anticonvulsant action was observed | 100 | 100 | anticonvulsant action was observed | – | – | – | – | – | –
5 | NC(=O)C(O)c1ccccc1-c1cccc(F)c1 (single isomer, unassigned) [Example 212, 2-(3′-Fluorobiphenyl-2-yl)-2-hydroxyacetamide] | – | – | 1/5/100 | – | – | anticonvulsant action was observed | – | – | anticonvulsant action was observed | – | 2/3 | 2/3 | 3/3 | – | 3/3
6 | NC(=O)[C@H](O)c1ccccc1-c1cc(Cl)cc(Cl)c1 (single isomer, unassigned) [Example 215, 2-(3′,5′-Dichlorobiphenyl-2-yl)-2R-hydroxyacetamide] | 64.8 | – | 7/10/100 | 0 | 66.7 | – | 66.7 | 66.7 | – | – | – | – | – | – | –
7 | NC(=O)Cc1ccccc1-c1cccc(Cl)c1 [Example 13, 2-(3′-chlorobiphenyl-2-yl)acetamide] | – | – | 2/10/100 | 100 | 66.7 | anticonvulsant action was observed | 66.7 | 100 | anticonvulsant action was observed | – | – | – | – | – | –
8 | NC(=O)Cc1ccc(F)cc1-c1ccccc1 [Example 39, 2-(5-fluorobiphenyl-2-yl)acetamide] | – | – | 1/5/100 | 33.3 | 66.7 | – | 100 | 100 | – | – | – | – | – | – | –
9 | NC(=O)Cc1ccc(F)cc1-c1ccccc1F [Example 41, 2-(2′,5-difluorobiphenyl-2-yl)acetamide] | – | – | 4/5/100 | 66.7 | 66.7 | anticonvulsant action was observed | 100 | 100 | anticonvulsant action was observed | – | – | – | – | – | –
10 | NC(=O)Cc1ccccc1-c1ccccc1 [Example 50, 2-(biphenyl-2-yl)acetamide] | – | – | 3/5/100 | – | 33.3 | – | 66.7 | 100 | – | – | – | – | – | – | –
11 | NC(=O)Cc1ccccc1-c1cccc(Br)c1 [Example 52, 2-(3′-bromobiphenyl-2-yl)acetamide] | – | – | 1/5/100 | 33.3 | 66.7 | – | 66.7 | 100 | – | – | – | – | – | – | –
12 | NC(=O)C(O)c1ccccc1-c1ccccc1 (stereo not drawn) [Example 59, 2-(Biphenyl-2-yl)-2-hydroxyacetamide] | 91.5 | – | 7/10/100 | 0 | 66.7 | – | 100 | 100 | – | – | – | – | – | – | –
13 | NC(=O)C(O)c1ccccc1-c1ccccc1F (stereo not drawn) [Example 60, 2-(2′-Fluorobiphenyl-2-yl)-2-hydroxyacetamide] | – | – | 1/5/100 | 33.3 | 66.7 | – | 100 | 100 | – | – | – | – | – | – | –
14 | NC(=O)Cc1ccccc1-c1cc(Cl)cc(Cl)c1Cl [Example 64, 2-(2′,3′,5′-Trichlorobiphenyl-2-yl)acetamide] | – | – | 3/5/100 | 0 | 100 | – | 100 | 100 | – | – | – | – | – | – | –
15 | NC(=O)Cc1ccccc1-c1ccc(Cl)cc1Cl [Example 78, 2-(2′,4′-dichlorobiphenyl-2-yl)acetamide] | – | – | 3/5/100 | 0 | 66.7 | – | 100 | 100 | – | – | – | – | – | – | –
16 | NC(=O)Cc1ccccc1-c1cc(F)cc(Cl)c1 [Example 80, 2-(3′-chloro-5′-fluorobiphenyl-2-yl)acetamide] | – | – | 4/5/100 | 66.7 | 100 | anticonvulsant action was observed | 100 | 100 | anticonvulsant action was observed | – | – | – | – | – | –
17 | NC(=O)Cc1ccccc1-c1cccc(F)c1Cl [Example 86, 2-(2′-chloro-3′-fluorobiphenyl-2-yl)acetamide] | – | – | 2/5/100 | 33.3 | 66.7 | – | 100 | 66.7 | – | – | – | – | – | – | –
18 | NC(=O)Cc1ccccc1-c1cc(F)ccc1Cl [Example 88, 2-(2′-chloro-5′-fluorobiphenyl-2-yl)acetamide] | – | – | 3/5/100 | 66.7 | 100 | anticonvulsant action was observed | 66.7 | 100 | anticonvulsant action was observed | – | – | – | – | – | –
19 | NC(=O)[C@@H](O)c1ccccc1-c1cc(Cl)cc(Cl)c1 [Example 216, 2-(3′,5′-dichlorobiphenyl-2-yl)-2S-hydroxyacetamide] | – | – | – | – | – | – | – | – | – | – | 1/3 | 1/3 | 1/3 | – | 2/3
